Data reported in PMC9322122, “Development of (4-Phenylamino)quinazoline Alkylthiourea Derivatives as Novel NF-κB Inhibitors” (Pharmaceuticals, 2022).
Entries after “also recorded” stand apart in the source; their conditions may differ.

Columns and labels:
IL-6 production = IL-6 production in LPS-activated dTHP-1 cells (ELISA); assay type: cell-based, human; settings: Homo sapiens
Procedure: The HEK-293 (ATCC Cat# CRL-1573, RRID:CVCL_0045) and human monocytic THP−1 cells (ATCC Cat# TIB-202, RRID:CVCL_0006) were, respectively, cultured in DMEM and RPMI 1640 media supplemented with 10% fetal bovine serum, 2 mM L-glutamine, and 1× Antibiotic-Antimycotic at 37 °C in a humidified incubator with 5% CO2. THP−1 cells were differentiated by 100 nM phorbol-12-myristate-13-acetate (PMA) for 4 h and then rested for 44 h as dTHP−1 cells.
The dTHP−1 cells were treated with indicated compounds for 3 h and then activated with or without 100 ng/mL lipopolysaccharide (LPS; E. coli 0111:B4) for another 24 h. The levels of human IL-6 and TNFα in supernatants were measured by DuoSet® ELISA Development System (R&D systems, Minneapolis, MN, USA) according to the manufacturer’s protocol.

phospho-NF-κB p65 (S468) = assay: Western blot phospho-NF-κB p65 (S468) in dTHP-1 cells; assay type: cell-based, human; settings: 7.5 µM; LPS-stimulated dTHP-1 cells
Procedure: (§1) Cells were lysed in the commercial RIPA Buffer (Thermo Fisher Scientific, Waltham, MA, USA) and then centrifuged at 14,000× g for 20 min. […] Antibodies used in this study were phospho-NF-κB p65 (S468; catalog no. 3039), phospho-NF-κB p65 (S536; catalog no. 3033), phospho-IKKα/β (catalog no. 2697), and IκB (catalog no. 9242) from Cell Signaling Technology (Beverly, MA, USA); GAPDH from ABclonal (catalog no. A10868; Woburn, MA, USA). The labeled signals were determined using an enhanced chemiluminescence system (UVP, Upland, CA, USA). The experiments were performed at least two times in triplicate, providing basically the same results.
The dTHP−1 cells were incubated with DMSO (0.1%), 19 (7.5 µM), or CAPE (10 µM) in medium for 3 h and then stimulated with or without LPS (0.1 µg/mL) for another 30 min. (A) Nuclear translocation of NF-κB p65 (green) was determined by immunofluorescent microscopy. Hoechst (blue) was used for nuclei staining. (B) The nuclear NF-κB p65-positive cells were quantified. (C) The levels of phospho-NF-κB p65 (S468), IκB, and GAPDH were determined by Western blot. (D) The normalized phospho-NF-κB p65 (S468) and IκB levels were quantified. All data are expressed as mean ± SEM (n = 3); ** p < 0.01 and *** p < 0.001 compared with the DMSO + LPS group.

phospho-NF-κB p65 (S536) = assay: Western blot phospho-NF-κB p65 (S536) in dTHP-1 cells; assay type: cell-based, human; settings: 7.5 µM; LPS-stimulated dTHP-1 cells
Procedure: as §1
(§2) The dTHP−1 cells were incubated with DMSO (0.1%), 19 (7.5 µM), or CAPE (10 µM) in medium for 3 h and then stimulated with or without LPS (0.1 µg/mL) for another 30 min. (A) The levels of phospho-NF-κB p65 (S536), phospho-IKKα/β, IκB, and GAPDH were determined by Western blot. The normalized (B) phospho-NF-κB p65 (S536), (C) phospho-IKKα/β, and (D) IκB levels were quantified. All data are expressed as mean ± SEM (n = 3); * p < 0.05 compared with the DMSO + LPS group.

phospho-IKKα/β = assay: Western blot phospho-IKKα/β in dTHP-1 cells; assay type: cell-based, human; settings: 7.5 µM; LPS-stimulated dTHP-1 cells
Procedure: as §1, §2

CHUK (IKK alpha) = target: T1, CHUK (IKK alpha) (Homo sapiens, UniProt O15111); assay: Kinase selectivity profiling (Thermo Fisher); assay type: biochemical; settings: ATP 100 μM, mean of duplicates
T1 construct: purchased Thermo Fisher Scientific (screening service)
T1 sequence (O15111 whole entry): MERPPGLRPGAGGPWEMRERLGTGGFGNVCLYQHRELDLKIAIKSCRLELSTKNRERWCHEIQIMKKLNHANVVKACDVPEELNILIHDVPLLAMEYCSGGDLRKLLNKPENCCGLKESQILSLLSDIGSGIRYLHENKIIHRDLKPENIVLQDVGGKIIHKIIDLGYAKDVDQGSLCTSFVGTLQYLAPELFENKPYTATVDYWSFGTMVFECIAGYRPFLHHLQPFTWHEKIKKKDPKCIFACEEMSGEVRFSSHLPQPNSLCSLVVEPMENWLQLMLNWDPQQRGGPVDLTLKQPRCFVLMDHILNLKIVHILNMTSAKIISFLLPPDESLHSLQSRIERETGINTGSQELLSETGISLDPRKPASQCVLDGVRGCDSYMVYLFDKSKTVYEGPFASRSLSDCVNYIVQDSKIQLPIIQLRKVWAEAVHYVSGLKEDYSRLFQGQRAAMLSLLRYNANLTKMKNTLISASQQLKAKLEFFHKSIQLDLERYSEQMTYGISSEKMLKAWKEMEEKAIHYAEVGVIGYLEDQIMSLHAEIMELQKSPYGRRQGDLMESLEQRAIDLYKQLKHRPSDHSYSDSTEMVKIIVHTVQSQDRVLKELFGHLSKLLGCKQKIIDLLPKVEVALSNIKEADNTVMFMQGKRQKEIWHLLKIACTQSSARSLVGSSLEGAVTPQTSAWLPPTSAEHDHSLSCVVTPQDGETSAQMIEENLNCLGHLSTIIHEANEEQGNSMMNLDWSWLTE
Procedure: (§3) Tabl e S1. Selectivity profiling of compound 19 ag ainst the protein kinases known to regulate the NF-kB pathway ki nase % Inhibiti on at 2 µMa […]
(§4) aScreenings were perf or med as a servi ce at Thermo Fisher Scientific at an ATP concentrat ion of 100 μM. n.i., no inhi biti on. Data represent mean values of duplicat es that differed by less t han 7%.

GSK3B (GSK3 beta) = target: T2, GSK3B (GSK3 beta) (Homo sapiens, UniProt P49841); assay: Kinase selectivity profiling (Thermo Fisher); assay type: biochemical; settings: ATP 100 μM, mean of duplicates
T2 construct: purchased Thermo Fisher Scientific (screening service)
Procedure: as §3, §4

IKBKB (IKK beta) = target: T3, IKBKB (IKK beta) (Homo sapiens, UniProt O14920); assay: Kinase selectivity profiling (Thermo Fisher); assay type: biochemical; settings: ATP 100 μM, mean of duplicates
T3 construct: purchased Thermo Fisher Scientific (screening service)
Procedure: as §3, §4

IKBKE (IKK epsilon) = target: T4, IKBKE (IKK epsilon) (Homo sapiens, UniProt Q14164); assay: Kinase selectivity profiling (Thermo Fisher); assay type: biochemical; settings: ATP 100 μM, mean of duplicates
T4 construct: purchased Thermo Fisher Scientific (screening service)
Procedure: as §3, §4

IRAK1 = target: T5, IRAK1 (Homo sapiens, UniProt P51617); assay: Kinase selectivity profiling (Thermo Fisher); assay type: biochemical; settings: ATP 100 μM, mean of duplicates
T5 construct: purchased Thermo Fisher Scientific (screening service)
Procedure: as §3, §4

IRAK4 = target: T6, IRAK4 (Homo sapiens, UniProt Q9NWZ3); assay: Kinase selectivity profiling (Thermo Fisher); assay type: biochemical; settings: ATP 100 μM, mean of duplicates
T6 construct: purchased Thermo Fisher Scientific (screening service)
T6 sequence (Q9NWZ3 whole entry): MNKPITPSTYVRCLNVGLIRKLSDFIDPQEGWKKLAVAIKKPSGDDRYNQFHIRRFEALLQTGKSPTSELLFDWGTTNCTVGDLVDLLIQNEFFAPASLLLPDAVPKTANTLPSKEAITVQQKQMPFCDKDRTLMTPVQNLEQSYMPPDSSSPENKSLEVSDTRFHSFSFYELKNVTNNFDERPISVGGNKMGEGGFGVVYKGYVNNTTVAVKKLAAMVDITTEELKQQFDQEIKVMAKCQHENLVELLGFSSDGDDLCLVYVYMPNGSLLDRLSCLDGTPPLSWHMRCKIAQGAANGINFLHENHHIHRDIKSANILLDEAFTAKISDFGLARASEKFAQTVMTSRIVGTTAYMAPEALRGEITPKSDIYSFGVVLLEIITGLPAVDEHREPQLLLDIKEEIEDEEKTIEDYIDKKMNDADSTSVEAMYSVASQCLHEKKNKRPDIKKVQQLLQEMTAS
Procedure: as §3, §4

MAP3K14 (NIK) = target: T7, MAP3K14 (NIK) (Homo sapiens, UniProt Q99558); assay: Kinase selectivity profiling (Thermo Fisher); assay type: biochemical; settings: ATP 100 μM, mean of duplicates
T7 construct: purchased Thermo Fisher Scientific (screening service)
T7 sequence (Q99558 whole entry): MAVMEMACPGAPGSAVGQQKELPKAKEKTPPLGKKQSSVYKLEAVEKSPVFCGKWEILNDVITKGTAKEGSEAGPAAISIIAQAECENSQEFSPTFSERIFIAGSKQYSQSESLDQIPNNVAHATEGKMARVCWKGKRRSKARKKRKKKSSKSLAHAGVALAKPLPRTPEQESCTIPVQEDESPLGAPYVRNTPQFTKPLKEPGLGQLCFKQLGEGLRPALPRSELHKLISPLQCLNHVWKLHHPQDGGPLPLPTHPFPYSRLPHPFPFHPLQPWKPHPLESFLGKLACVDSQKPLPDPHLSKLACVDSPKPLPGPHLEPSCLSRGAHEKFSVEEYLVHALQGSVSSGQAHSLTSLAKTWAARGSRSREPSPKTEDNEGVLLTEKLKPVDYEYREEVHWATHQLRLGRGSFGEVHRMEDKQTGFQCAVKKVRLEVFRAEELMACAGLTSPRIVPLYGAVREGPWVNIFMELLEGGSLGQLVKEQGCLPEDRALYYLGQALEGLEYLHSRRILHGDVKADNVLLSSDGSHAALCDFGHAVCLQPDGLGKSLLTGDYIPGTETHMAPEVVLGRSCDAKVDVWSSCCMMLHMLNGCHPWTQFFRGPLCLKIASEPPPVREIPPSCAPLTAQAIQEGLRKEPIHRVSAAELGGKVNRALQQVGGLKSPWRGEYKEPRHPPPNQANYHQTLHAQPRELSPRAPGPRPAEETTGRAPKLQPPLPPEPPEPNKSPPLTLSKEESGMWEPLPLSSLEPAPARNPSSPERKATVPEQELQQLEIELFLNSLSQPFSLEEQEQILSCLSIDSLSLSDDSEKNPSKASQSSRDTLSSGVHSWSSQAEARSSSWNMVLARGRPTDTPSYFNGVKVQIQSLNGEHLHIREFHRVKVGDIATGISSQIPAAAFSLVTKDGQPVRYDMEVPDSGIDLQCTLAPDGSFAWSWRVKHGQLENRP
Procedure: as §3, §4

[1] = target: T8, MAP3K7/MAP3K7IP1 (TAK1-TAB1) (Homo sapiens, UniProt O43318); assay: Kinase selectivity profiling (Thermo Fisher); assay type: biochemical; settings: ATP 100 μM, mean of duplicates
T8 construct: purchased Thermo Fisher Scientific (screening service)
Procedure: as §3, §4

MAPK14 (p38 alpha) = target: T9, MAPK14 (p38 alpha) (Homo sapiens, UniProt Q16539); assay: Kinase selectivity profiling (Thermo Fisher); assay type: biochemical; settings: ATP 100 μM, mean of duplicates
T9 construct: purchased Thermo Fisher Scientific (screening service)
Procedure: as §3, §4

MAPK3 (ERK1) = target: T10, MAPK3 (ERK1) (Homo sapiens, UniProt P27361); assay: Kinase selectivity profiling (Thermo Fisher); assay type: biochemical; settings: ATP 100 μM, mean of duplicates
T10 construct: purchased Thermo Fisher Scientific (screening service)
Procedure: as §3, §4

PRKCI (PKC iota) = target: T11, PRKCI (PKC iota) (Homo sapiens, UniProt P41743); assay: Kinase selectivity profiling (Thermo Fisher); assay type: biochemical; settings: ATP 100 μM, n.i. = no inhibition
T11 construct: purchased Thermo Fisher Scientific (screening service)
T11 sequence (P41743 whole entry): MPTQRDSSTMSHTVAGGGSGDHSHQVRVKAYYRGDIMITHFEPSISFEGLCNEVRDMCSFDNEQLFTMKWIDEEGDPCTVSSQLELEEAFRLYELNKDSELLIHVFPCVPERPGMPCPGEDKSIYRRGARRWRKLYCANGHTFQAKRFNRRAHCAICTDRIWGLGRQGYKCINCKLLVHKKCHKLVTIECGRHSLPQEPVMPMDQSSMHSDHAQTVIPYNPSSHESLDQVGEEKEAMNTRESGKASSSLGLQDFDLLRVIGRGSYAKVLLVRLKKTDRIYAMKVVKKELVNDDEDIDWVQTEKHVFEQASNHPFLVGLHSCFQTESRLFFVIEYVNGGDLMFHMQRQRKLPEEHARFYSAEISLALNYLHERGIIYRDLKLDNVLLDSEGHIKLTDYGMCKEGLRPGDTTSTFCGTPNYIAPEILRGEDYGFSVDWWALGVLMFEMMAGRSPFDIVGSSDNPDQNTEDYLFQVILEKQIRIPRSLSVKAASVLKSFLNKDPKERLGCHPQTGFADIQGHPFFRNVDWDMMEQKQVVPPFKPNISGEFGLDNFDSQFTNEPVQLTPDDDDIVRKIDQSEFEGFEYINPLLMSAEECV
Procedure: as §3, §4

PRKCQ (PKC theta) = target: T12, PRKCQ (PKC theta) (Homo sapiens, UniProt Q04759); assay: Kinase selectivity profiling (Thermo Fisher); assay type: biochemical; settings: ATP 100 μM, n.i. = no inhibition
T12 construct: purchased Thermo Fisher Scientific (screening service)
T12 sequence (Q04759 whole entry): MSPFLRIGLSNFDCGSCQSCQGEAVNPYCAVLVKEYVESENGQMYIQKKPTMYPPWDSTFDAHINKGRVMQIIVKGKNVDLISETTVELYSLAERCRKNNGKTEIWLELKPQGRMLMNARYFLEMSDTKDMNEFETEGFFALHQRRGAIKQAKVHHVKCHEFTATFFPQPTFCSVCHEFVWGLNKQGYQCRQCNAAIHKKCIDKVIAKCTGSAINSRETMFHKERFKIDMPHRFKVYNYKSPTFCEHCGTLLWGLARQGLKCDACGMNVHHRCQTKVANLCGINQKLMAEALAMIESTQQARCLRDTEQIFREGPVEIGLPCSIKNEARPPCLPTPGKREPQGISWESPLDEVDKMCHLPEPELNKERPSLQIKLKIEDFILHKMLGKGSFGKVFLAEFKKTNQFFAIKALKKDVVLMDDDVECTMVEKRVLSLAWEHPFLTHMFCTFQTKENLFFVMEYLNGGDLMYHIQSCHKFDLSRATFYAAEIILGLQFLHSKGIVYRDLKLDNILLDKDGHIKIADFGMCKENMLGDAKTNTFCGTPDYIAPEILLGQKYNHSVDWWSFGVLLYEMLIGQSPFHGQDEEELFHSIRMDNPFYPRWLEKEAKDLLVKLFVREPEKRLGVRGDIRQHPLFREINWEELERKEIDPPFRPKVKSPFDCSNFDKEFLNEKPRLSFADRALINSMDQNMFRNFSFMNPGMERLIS
Procedure: as §3, §4

PRKCZ (PKC zeta) = target: T13, PRKCZ (PKC zeta) (Homo sapiens, UniProt Q05513); assay: Kinase selectivity profiling (Thermo Fisher); assay type: biochemical; settings: ATP 100 μM, mean of duplicates
T13 construct: purchased Thermo Fisher Scientific (screening service)
T13 sequence (Q05513 whole entry): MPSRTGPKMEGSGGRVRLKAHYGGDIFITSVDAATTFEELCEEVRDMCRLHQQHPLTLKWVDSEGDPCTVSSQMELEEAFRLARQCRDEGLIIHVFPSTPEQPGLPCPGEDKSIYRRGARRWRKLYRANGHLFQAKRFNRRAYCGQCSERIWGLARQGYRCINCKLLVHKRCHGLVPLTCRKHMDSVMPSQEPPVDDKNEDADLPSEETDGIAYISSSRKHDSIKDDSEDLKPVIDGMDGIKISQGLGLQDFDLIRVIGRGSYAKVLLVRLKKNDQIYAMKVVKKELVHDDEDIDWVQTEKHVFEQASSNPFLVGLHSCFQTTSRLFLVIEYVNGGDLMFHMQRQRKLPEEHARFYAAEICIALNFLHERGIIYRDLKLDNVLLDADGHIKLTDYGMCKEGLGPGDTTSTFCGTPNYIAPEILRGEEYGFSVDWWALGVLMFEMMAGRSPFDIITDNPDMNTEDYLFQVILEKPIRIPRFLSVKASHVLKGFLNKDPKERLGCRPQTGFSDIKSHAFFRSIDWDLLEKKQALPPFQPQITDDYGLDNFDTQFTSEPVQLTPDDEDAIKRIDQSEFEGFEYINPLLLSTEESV
Procedure: as §3, §4

RIPK2 = target: T14, RIPK2 (Homo sapiens, UniProt O43353); assay: Kinase selectivity profiling (Thermo Fisher); assay type: biochemical; settings: ATP 100 μM, mean of duplicates
T14 construct: purchased Thermo Fisher Scientific (screening service)
Procedure: as §3, §4

RPS6KA1 (RSK1) = target: T15, RPS6KA1 (RSK1) (Homo sapiens, UniProt Q15418); assay: Kinase selectivity profiling (Thermo Fisher); assay type: biochemical; settings: ATP 100 μM, mean of duplicates
T15 construct: purchased Thermo Fisher Scientific (screening service)
Procedure: as §3, §4

TBK1 = target: T16, TBK1 (Homo sapiens, UniProt Q9UHD2); assay: Kinase selectivity profiling (Thermo Fisher); assay type: biochemical; settings: ATP 100 μM, mean of duplicates
T16 construct: purchased Thermo Fisher Scientific (screening service)
T16 sequence (Q9UHD2 whole entry): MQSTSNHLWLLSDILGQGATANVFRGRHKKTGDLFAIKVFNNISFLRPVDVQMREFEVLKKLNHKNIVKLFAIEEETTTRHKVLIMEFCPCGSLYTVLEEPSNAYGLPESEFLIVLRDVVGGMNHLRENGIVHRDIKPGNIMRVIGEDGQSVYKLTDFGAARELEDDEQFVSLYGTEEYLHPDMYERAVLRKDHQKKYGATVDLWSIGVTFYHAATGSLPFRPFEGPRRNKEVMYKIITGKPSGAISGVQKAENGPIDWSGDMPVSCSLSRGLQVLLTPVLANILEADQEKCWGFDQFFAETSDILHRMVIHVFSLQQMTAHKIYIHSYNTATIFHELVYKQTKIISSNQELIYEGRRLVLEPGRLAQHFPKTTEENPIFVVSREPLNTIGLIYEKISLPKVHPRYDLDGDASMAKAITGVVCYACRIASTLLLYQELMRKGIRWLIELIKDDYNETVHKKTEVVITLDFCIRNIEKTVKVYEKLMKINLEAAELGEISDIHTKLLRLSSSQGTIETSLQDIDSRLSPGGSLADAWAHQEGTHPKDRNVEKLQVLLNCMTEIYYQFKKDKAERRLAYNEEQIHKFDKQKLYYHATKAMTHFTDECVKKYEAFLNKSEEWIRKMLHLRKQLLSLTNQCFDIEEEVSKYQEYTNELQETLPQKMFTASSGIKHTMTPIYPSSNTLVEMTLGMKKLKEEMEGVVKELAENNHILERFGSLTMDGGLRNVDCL
Procedure: as §3, §4

## S=C(Nc1ccc2ncnc(Nc3cccc(Cl)c3)c2c1)NC1CCCC1 [Compound 19, 1-(4-((3-Chlorophenyl)amino)quinazolin-6-yl)-3-cyclopentylthiourea]
IL-6 production; 7.5 μM, LPS 100 ng/mL for 24 h, dTHP-1 cells, read-out: IL-6 Production Inh % (7.5 μM)
  inhibition at 7.5 µM: 92.7 ± 5.5%
IL-6 production; 15 μM, LPS 100 ng/mL for 24 h, dTHP-1 cells, read-out: IL-6 Production Inh % (15 μM)
  inhibition at 15 µM: 98.3 ± 0.28%
IL-6 production; LPS-activated dTHP-1 cells, 24 h
  IC50: 840 ± 120 nM
phospho-NF-κB p65 (S468)
  Phosphorylation of p65-Ser468: significantly diminished phosphorylation of p65-Ser468
phospho-NF-κB p65 (S536)
  Phosphorylation of p65 at Ser536: not affected
phospho-IKKα/β
  Activation of IKKα/β (phospho-IKKα/β): had no effects on IKKα/β-IκB signaling; also recorded: neither blocked the activation of IKKα/β
CHUK (IKK alpha)
  inhibition at 2 µM: 6%
GSK3B (GSK3 beta)
  inhibition at 2 µM: 4%
IKBKB (IKK beta)
  inhibition at 2 µM: 3%
IKBKE (IKK epsilon)
  inhibition at 2 µM: 3%
IRAK1
  inhibition at 2 µM: 2%
IRAK4
  inhibition at 2 µM: 5%
MAP3K14 (NIK)
  inhibition at 2 µM: 9%
[1]
  inhibition at 2 µM: 3%
MAPK14 (p38 alpha)
  inhibition at 2 µM: 4%
MAPK3 (ERK1)
  inhibition at 2 µM: 2%
PRKCI (PKC iota)
  % Inhibition at 2 µM, PRKCI (PKC iota): n.i.
PRKCQ (PKC theta)
  % Inhibition at 2 µM, PRKCQ (PKC theta): n.i.
PRKCZ (PKC zeta)
  inhibition at 2 µM: 3%
RIPK2
  inhibition at 2 µM: 29%
RPS6KA1 (RSK1)
  inhibition at 2 µM: 1%
TBK1
  inhibition at 2 µM: 8%
